Experimental data as given in PMC5501782 (Scientific Reports, 2017).
Entries after “also recorded” stand apart in the source; their conditions may differ. Non-standard residues stand in square brackets, D forms with d. Residues, ends and D or L forms follow the SMILES beside them.

Legend:
[1] = tested on: Influenza virus (H7N3) A/Aquatic bird/Korea/W44/2005; conditions: 48 h
[2] = tested on: PR8-GFP virus; set-up: species or system influenza A virus
[3] = tested on: Newcastle disease virus; conditions: 48 h
[4] = tested on: VSV (293T cells); format: cell-based, vesicular stomatitis virus
[5] = tested on: Vesicular stomatitis virus; conditions: 48 h
[6] = tested on: PR8-GFP virus; format: cell-based, influenza A virus
[7] = tested on: Respiratory Syncytial Virus; conditions: 48 h
[8] = tested on: Parainfluenza virus; conditions: 48 h
[9] = tested on: Influenza virus (H1N1) A/Puerto Rico/8/34; conditions: Influenza virus A/Puerto Rico/8/34, 48 h
[10] = tested on: MDCK cells
[11] = tested on: Porcine epidemic diarrhea virus; conditions: 48 h
[12] = tested on: Coxsakievirus; format: cell-based
[13] = tested on: Herpes simplex virus; conditions: 48 h
[14] = tested on: Influenza virus (H5N2) A/bird/Korea/W81/2005; conditions: Influenza virus A/bird/Korea/W81/2005, 48 h
[15] = tested on: A/EM/Korea/W149/06 (W149, HPAI, H5N1); conditions: mouse, in vivo
[16] = tested on: RSV (Hep2 cells); format: cell-based, respiratory syncytial virus
[17] = tested on: Coxsackievirus (HeLa cells); format: cell-based
[18] = tested on: Influenza virus (H9N2) A/Chicken/Korea/116/2004; conditions: 48 h
[19] = tested on: influenza virus (A/Puerto Rico/8/34, PR8) expressing green fluorescent protein (PR8-GFP); format: cell-based
[20] = tested on: Enterovirus71; format: cell-based
[21] = tested on: autophagy; conditions: cited from earlier work

CC(C)C[C@@H](NC(=O)[C@@H](CC(C)C)NC(=O)[C@@H](CC(N)=O)NC(=O)[C@H](NC(=O)[C@@H](Cc1ccccc1)NC(=O)CNC(=O)[C@@H](Cc1ccc(O)cc1)NC(=O)CNC(=O)[C@@H](CCCNC(=N)N)NC(=O)[C@@H](CCCCN)NC(=O)[C@@H](CCCCN)NC(=O)[C@@H](CCCNC(=N)N)NC(=O)[C@@H](CCCNC(=N)N)NC(=O)[C@@H](CCC(N)=O)NC(=O)[C@@H](CCCNC(=N)N)NC(=O)[C@@H](CCCNC(=N)N)NC(=O)[C@H](N)CCCNC(=N)N)C(C)C)C(=O)N[C@H](Cc1ccccc1)C(=O)N[C@H](CC(C)C)C(=O)N[C@@H](C(=O)N[C@@H](C(=O)N[C@H](CCC(=O)O)C(=O)O)C(C)C)C(C)C [TAT-Kα2] (H-[dR][dR][dR][dQ][dR][dR][dK][dK][dR]G[dY]G[dF][dV][dN][dL][dL][dF][dL][dV][dV][dE]-OH)
IC50 [1]: 1.2 µM
infectivity of virus in positive fractions in vitro [2]: did not
IC50 [3]: 0.8 µM
inhibition of infection [4]: inhibited
IC50 [5]: 2.9 µM
virus transmission [6]: suppressed
IC50 [7]: 3.4 µM
IC50 [8]: 2.4 µM
IC50 [9]: 0.5 µM
cytotoxicity or CPE [10]: no cytotoxicity or CPE
IC50 [11]: 3.5 µM
IC50 [12]: No
IC50 [13]: 5.7 µM
IC50 [14]: 0.8 µM
difference in body weight percentage among groups [15]: more than 20%
lung histopathology [15]: intact lung tissues
lung virus titer [15]: no virus was detected
survival rate [15]: 100%
inhibition of infection [16]: inhibited
virucidal effect [17]: did not show any virucidal effects
IC50 [18]: 0.7 µM
antiviral action at attachment step [19]: inhibition of virus infection
antiviral action at post-attachment step [19]: unable to inhibit virus infection
antiviral action at pre-attachment step [19]: antiviral activity
infection of MDCK cells by peptide-treated PR8-GFP [19]: strongly diminished
infectivity of PR8-GFP virus [19]: dramatically suppressed; also recorded: no viral infection was detected
reduction in the virus titer [19]: approximately 40%
IC50 [20]: No
virucidal effect [20]: did not show any virucidal effects

EVVLFLLNVF [Kα2]
autophagy induction [21]: robust autophagy inducer
